# In ChEMBL document CHEMBL5365497, “Developing Novel Coumarin-Containing Azoles Antifungal Agents by the Scaffold Merging Strategy for Treating Azole-Resistant Candidiasis” (J Med Chem, 2023):
# The source made the active and inactive calls. The rule behind the calls is not given here.
# Assays:
# Candida albicans [1] = test: Antifungal activity against Candida albicans SC5314 assessed as fungal growth inhibition by CLSI based microdilution method; format: functional
# Candida parapsilosis = test: Antifungal activity against Candida parapsilosis assessed as fungal growth inhibition by CLSI based microdilution method; format: functional; conditions: Lodderomyces parapsilosis
# [2] = molecular target: Lanosterol 14-alpha demethylase (Candida albicans (strain SC5314 / ATCC MYA-2876) (Yeast), UniProt P10613); test: Inhibition of CYP51 in Candida albicans SC5314 assessed as increase in obtusifoliol level at 0.03125 ug/ml incubated for 24 hrs by GC-MS analysis; conditions: at 0.03125 µg/mL
# Candida albicans [3] = test: Antifungal activity against Candida albicans SC5314 assessed as cell lysis at 16 ug/ml incubated for 24 hrs by TEM analysis; format: functional, organism-based; conditions: dose 16.0 µg/ml
# Candida albicans [4] = test: Antifungal activity against fluconazole-resistant Candida albicans 17# assessed as fungal growth inhibition by CLSI based microdilution method; format: functional
# Candida albicans [5] = test: Antifungal activity against fluconazole-resistant Candida albicans 901 assessed as fungal growth inhibition by CLSI based microdilution method; format: functional
# Candida albicans [6] = test: Antifungal activity against fluconazole-resistant Candida albicans 904 assessed as inhibition of yeast to hypha morphological transition at 16 ug/ml incubated for 4 hrs by inverted microscopy; format: functional, organism-based; conditions: dose 16.0 µg/ml
# Candida albicans [7] = test: Antibiofilm activity against fluconazole-resistant Candida albicans 904 incubated for 24 hrs by XTT reduction assay; format: functional, organism-based; conditions: dose <= 128.0 µg/ml
# Candida albicans [8] = test: Antifungal activity against Candida albicans CPCC400616 assessed as reduction in EFG1 expression at 2 ug/ml incubated for 12 hrs by RT-PCR analysis; format: functional, organism-based; conditions: dose 2.0 µg/ml
# Candida albicans [9] = test: Antifungal activity against fluconazole-resistant Candida albicans 904 assessed as reduction in EFG1 expression at 16 ug/ml incubated for 12 hrs by RT-PCR analysis; format: functional, organism-based; conditions: dose 16.0 µg/ml
# Candida albicans [10] = test: Antifungal activity against Candida albicans CPCC400616 assessed as reduction in TEC1 expression at 2 ug/ml incubated for 12 hrs by RT-PCR analysis; format: functional, organism-based; conditions: dose 2.0 µg/ml
# Candida albicans [11] = test: Antifungal activity against Candida albicans CPCC400616 assessed as reduction in CPH1 expression at 2 ug/ml incubated for 12 hrs by RT-PCR analysis; format: functional, organism-based; conditions: dose 2.0 µg/ml
# Candida albicans [12] = test: Antifungal activity against fluconazole-resistant Candida albicans 904 assessed as reduction in CPH1 expression at 16 ug/ml incubated for 12 hrs by RT-PCR analysis; format: functional, organism-based; conditions: dose 16.0 µg/ml
# Candida albicans [13] = test: Antifungal activity against fluconazole-resistant Candida albicans 904 assessed as reduction in ALS3 expression at 16 ug/ml incubated for 12 hrs by RT-PCR analysis; format: functional, organism-based; conditions: dose 16.0 µg/ml
# Candida albicans [14] = test: Antifungal activity against fluconazole-resistant Candida albicans 904 assessed as decrease in ERG11 expression at 16 ug/ml measured after 16 hrs by RT-PCR analysis; format: functional, organism-based; conditions: dose 16.0 µg/ml
# Candida albicans [15] = test: Antifungal activity against fluconazole-resistant Candida albicans 904 assessed as decrease in CDR1 expression at 16 ug/ml measured after 16 hrs by RT-PCR analysis; format: functional, organism-based; conditions: dose 16.0 µg/ml
# [16] = Stability in mouse plasma assessed as half life at 1 uM measured for 180 mins by LC-MS/MS analysis; format: ADME, cell-free
# Candida albicans [17] = test: Antifungal activity against Candida albicans SC5314 infected in ICR mouse assessed as reduction in fungal kidney burden by measuring CFU at 0.6 mg/kg, ip measured after 5 days; format: functional, organism-based; conditions: time 5.0 day
# Candida albicans [18] = test: Antifungal activity against fluconazole-resistant Candida albicans 904 infected in ICR mouse assessed as reduction in fungal kidney burden by measuring CFU administered intraperitoneally measured after 5 days; format: functional, organism-based; conditions: dose 0.6 mg/kg, route ip, time 5.0 day
# Cytochrome P450 2C19 = Cytochrome P450 2C19 (Homo sapiens, UniProt P33261); test: Inhibition of CYP2C19 in human liver microsomes using […] as substrate preincubated for 5 mins followed by NADPH addition by LC-MS/MS analysis; format: ADME, Microsome
# Cytochrome P450 2D6 = Cytochrome P450 2D6 (Homo sapiens, UniProt P10635); test: Inhibition of CYP2D6 in human liver microsomes using dextromethorphan as substrate preincubated for 5 mins followed by NADPH addition by LC-MS/MS analysis; format: ADME, Microsome
# [19] = Cytotoxicity against mouse J774.A1 cells assessed as cell growth inhibition by MTT assay; format: toxicity, cell-based
# [20] = Subacute toxicity in KM mouse assessed as mortality at 100 mg/kg administered via gavage daily for 14 days; format: organism-based; conditions: in vivo, po, 336 h, time 14 day
# [21] = Subacute toxicity in male KM mouse assessed as focal infiltration of lymphocytes in kidney at 100 mg/kg administered via gavage daily for 7 days; format: organism-based; conditions: in vivo, po, 168 h, time 7 day
# [22] = Subacute toxicity in female KM mouse assessed as liver inflammation at 100 mg/kg administered via gavage daily for 14 days; format: organism-based; conditions: in vivo, po, 336 h, time 14 day
# [23] = Subacute toxicity in female KM mouse assessed as kidney damage at 100 mg/kg administered via gavage daily for 14 days; format: organism-based; conditions: in vivo, po, 336 h, time 14 day
# Chain of Cytochrome P450 2C19 (P33261 whole entry): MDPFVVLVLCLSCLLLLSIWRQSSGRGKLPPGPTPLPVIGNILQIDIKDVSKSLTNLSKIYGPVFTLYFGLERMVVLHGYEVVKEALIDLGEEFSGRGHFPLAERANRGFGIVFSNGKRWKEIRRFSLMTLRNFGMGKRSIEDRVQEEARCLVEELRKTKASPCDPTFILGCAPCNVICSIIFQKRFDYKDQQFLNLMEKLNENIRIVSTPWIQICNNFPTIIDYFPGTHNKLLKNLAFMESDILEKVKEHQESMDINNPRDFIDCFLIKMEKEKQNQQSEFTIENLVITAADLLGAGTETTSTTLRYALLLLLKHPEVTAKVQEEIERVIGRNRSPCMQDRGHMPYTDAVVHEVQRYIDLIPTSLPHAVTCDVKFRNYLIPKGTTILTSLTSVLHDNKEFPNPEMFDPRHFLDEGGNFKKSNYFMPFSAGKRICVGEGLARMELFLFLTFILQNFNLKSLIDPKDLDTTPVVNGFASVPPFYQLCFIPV
# Chain of Lanosterol 14-alpha demethylase (P10613 whole entry): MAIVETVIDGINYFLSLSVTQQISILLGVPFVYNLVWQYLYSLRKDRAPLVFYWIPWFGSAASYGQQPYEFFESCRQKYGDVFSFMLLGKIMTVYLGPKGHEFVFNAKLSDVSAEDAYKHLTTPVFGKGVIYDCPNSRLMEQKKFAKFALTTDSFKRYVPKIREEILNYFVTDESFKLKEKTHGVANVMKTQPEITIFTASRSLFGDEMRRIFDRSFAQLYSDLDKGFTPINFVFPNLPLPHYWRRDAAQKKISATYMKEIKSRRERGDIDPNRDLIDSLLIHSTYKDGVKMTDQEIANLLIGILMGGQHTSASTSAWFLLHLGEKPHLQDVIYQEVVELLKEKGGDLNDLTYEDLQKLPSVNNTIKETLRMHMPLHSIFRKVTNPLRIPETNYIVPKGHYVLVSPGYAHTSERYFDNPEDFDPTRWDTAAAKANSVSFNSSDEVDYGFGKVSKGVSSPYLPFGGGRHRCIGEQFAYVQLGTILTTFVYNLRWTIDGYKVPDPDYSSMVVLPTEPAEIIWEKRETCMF
# Chain of Cytochrome P450 2D6 (P10635 whole entry): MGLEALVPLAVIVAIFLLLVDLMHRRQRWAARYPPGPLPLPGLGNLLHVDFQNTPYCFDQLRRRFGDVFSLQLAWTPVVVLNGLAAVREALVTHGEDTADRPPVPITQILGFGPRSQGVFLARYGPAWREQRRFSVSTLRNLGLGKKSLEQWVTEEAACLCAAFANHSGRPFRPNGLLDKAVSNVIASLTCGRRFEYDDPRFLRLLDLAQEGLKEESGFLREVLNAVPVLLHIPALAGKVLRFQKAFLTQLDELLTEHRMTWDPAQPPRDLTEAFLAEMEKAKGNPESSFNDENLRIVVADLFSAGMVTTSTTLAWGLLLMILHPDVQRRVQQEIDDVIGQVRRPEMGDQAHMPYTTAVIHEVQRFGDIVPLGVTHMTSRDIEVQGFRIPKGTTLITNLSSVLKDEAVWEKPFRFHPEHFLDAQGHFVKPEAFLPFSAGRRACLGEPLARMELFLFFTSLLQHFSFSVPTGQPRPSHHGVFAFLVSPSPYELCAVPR
smiles,measurement,setting,value
O=c1ccc2ccc(COC(Cn3ccnc3)c3ccc(Cl)cc3Cl)cc2o1 (stereo unspecified),MIC,Candida albicans [1],0.03 µg/mL
same,MIC,Candida parapsilosis,0.5 µg/mL
same,inhibition (INH),[2],Active
same,Activity,Candida albicans [3],Active
same,MIC,Candida albicans [4],4 µg/mL
same,MIC,Candida albicans [5],4 µg/mL
same,inhibition,Candida albicans [6],Active
same,Activity,Candida albicans [7],Dose-Dependent Effect
same,Activity,Candida albicans [8],Active
same,Activity,Candida albicans [9],Active
same,Activity,Candida albicans [10],Active
same,Activity,Candida albicans [11],Active
same,Activity,Candida albicans [12],Active
same,Activity,Candida albicans [13],Active
same,Activity,Candida albicans [14],Active
same,Activity,Candida albicans [15],Active
same,half-life at 1 µM,[16],> 6 h
same,Activity,Candida albicans [17],Active
same,Activity,Candida albicans [18],Dose-Dependent Effect
same,IC50,Cytochrome P450 2C19,0.227 µM
same,IC50,Cytochrome P450 2D6,1.14 µM
same,IC50,[19],24.4 µM
same,Activity,[20],Non-Toxic
same,Activity,[21],Toxic
same,Activity,[22],Toxic
same,Activity,[23],Non-Toxic
